Measured values as given in patent US20110263016A1, “Expansion of Embryonic Stem Cells” (priority 2008, published 2011).

Tests used:
hESCs = conditions: cited from earlier work
H9 hESCs = assay: Expansion of hESCs in stirred suspension bioreactors; type: cell-based, human
Description: Bioreactor Maintenance of hESCs. H9 cells passaged in static on Matrigel™ or using feeder layers were pre-treated for 1 hr with 10 μM Y-27632 (Sigma), then dissociated as described earlier. The hESCs were then inoculated into 125 ml bioreactors (NDS Technologies) at 1.8×10^4 cells/ml. The bioreactors contained 100 ml of mTeSR medium supplemented with 10 μM Y-27632 and 0.1 nM Rapamycin (Sigma), were agitated at 100 rpm and were incubated under standard conditions (37° C., 5% CO2, saturated humidity). After 24 hrs in suspension culture, the Y-27632 was removed and replaced with mTeSR medium containing 0.1 nM Rapamycin. […] The single cell suspension of hESCs was split 1:5 and inoculated into a new bioreactor containing 100 ml of mTeSR medium supplemented with 10 μM Y-27632 and 0.1 nM Rapamycin for 24 hrs.
In the bioreactor systems, hESCs (collected from static cultures containing Matrigel™ or human foreskin fibroblast feeder (HFF) cells) were inoculated at 1.8×10^4 cells/ml into 100 ml of mTeSR medium (Stemcell Technologies Inc.) and agitated at 100 rpm.

C[C@@H](N)[C@H]1CC[C@H](C(=O)Nc2ccncc2)CC1 [Y-27632]
survival rate of dissociated, single hESCs (hESCs): increases the survival rate | hESC aggregate formation (H9 hESCs; 10 μM ROCK inhibitor and 0.1 nM Rapamycin together, 1.8×10^4 cells/ml, mTeSR, 100 rpm): form tight aggregates | hESC aggregate formation when the inhibitor is left out (H9 hESCs; ROCK inhibitor excluded from bioreactor cultures, by day 5, data not shown): noticeably fewer aggregates were observed and mainly single cells were observed by day 5 | lag phase of the cultures (H9 hESCs; exposure to ROCK inhibitor decreased from 4 days to 24 hrs): substantial decrease in the lag phase | overall expansion (H9 hESCs; non-passaged cultures, ROCK inhibitor day 0 to day 4, collagenase every 5 days, over 20 days): 67 fold
